Test results from patent US12493040B2, “Cancer detection method using sense of smell of nematode” (HIROTSU BIO SCIENCE INC., priority 2013, dated 2025).

Tested on: RNAi-treated eri-1 (mg366) nematodes
Assay: RNAi screening of olfactory receptor genes: chemotaxis assay of RNAi-treated nematodes to odorants
Assay type: in vivo, Caenorhabditis elegans
Settings: low concentration of attractant
Summary of the method: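 Chemotaxis of adult RNAi-fed eri-1 (mg366) nematodes (30–50 per test) was measured toward low (1 μl, 10^−3 or 10^−4 dilution) or high (1 and 5 μl neat) odorant doses. Knockdown: 4 days feeding on E. coli from Ahringer library with IPTG and ampicillin. Differences called by z score at ±1.96, weaker cutoff ±0.96.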

## Cc1nc(C)c(C)s1 [trimethylthiazole]
Control nematodes
  chemotaxis index: 0.64 ± 0.015
srh-10 RNAi-treated nematodes
  chemotaxis index: 0.88
srh-11 RNAi-treated nematodes
  chemotaxis index: 0.85
srh-15 RNAi-treated nematodes
  chemotaxis index: 0.91
srh-16 RNAi-treated nematodes
  chemotaxis index: 0.49
srh-18 RNAi-treated nematodes
  chemotaxis index: 0.91
srh-19 RNAi-treated nematodes
  chemotaxis index: 0.88
srh-22 RNAi-treated nematodes
  chemotaxis index: 0.75
srh-23 RNAi-treated nematodes
  chemotaxis index: 0.78
srh-24 RNAi-treated nematodes
  chemotaxis index: 0.92
srh-25 RNAi-treated nematodes
  chemotaxis index: 0.95
srh-27 RNAi-treated nematodes
  chemotaxis index: 0.71
srh-28 RNAi-treated nematodes
  chemotaxis index: 0.92
srh-36 RNAi-treated nematodes
  chemotaxis index: 0.51
srh-37 RNAi-treated nematodes
  chemotaxis index: 0.87
srh-39 RNAi-treated nematodes
  chemotaxis index: 0.45
srh-40 RNAi-treated nematodes
  chemotaxis index: 0.73
srh-41 RNAi-treated nematodes
  chemotaxis index: 0.85
srh-44 RNAi-treated nematodes
  chemotaxis index: 0.90
srh-45 RNAi-treated nematodes
  chemotaxis index: 0.73
srh-46 RNAi-treated nematodes
  chemotaxis index: 0.83
srh-48 RNAi-treated nematodes
  chemotaxis index: 0.65
srh-49 RNAi-treated nematodes
  chemotaxis index: 0.59
srh-50 RNAi-treated nematodes
  chemotaxis index: 0.84
srh-51 RNAi-treated nematodes
  chemotaxis index: 0.64
srh-52 RNAi-treated nematodes
  chemotaxis index: 0.55
srh-55 RNAi-treated nematodes
  chemotaxis index: 0.56
srh-59 RNAi-treated nematodes
  chemotaxis index: 0.37
srh-60 RNAi-treated nematodes
  chemotaxis index: 0.79
srh-61 RNAi-treated nematodes
  chemotaxis index: 0.70
srh-67 RNAi-treated nematodes
  chemotaxis index: 0.63
srh-68 RNAi-treated nematodes
  chemotaxis index: 0.57
srh-69 RNAi-treated nematodes
  chemotaxis index: 0.75
srh-70 RNAi-treated nematodes
  chemotaxis index: 0.78
srh-71 RNAi-treated nematodes
  chemotaxis index: 0.85
srh-72 RNAi-treated nematodes
  chemotaxis index: 0.58
srh-74 RNAi-treated nematodes
  chemotaxis index: 0.44
srh-75 RNAi-treated nematodes
  chemotaxis index: 0.54
srh-77 RNAi-treated nematodes
  chemotaxis index: 0.52
srh-79 RNAi-treated nematodes
  chemotaxis index: 0.42
srh-80 RNAi-treated nematodes
  chemotaxis index: 0.39
srh-82 RNAi-treated nematodes
  chemotaxis index: 0.71
srh-83 RNAi-treated nematodes
  chemotaxis index: 0.86
srh-97 RNAi-treated nematodes
  chemotaxis index: 0.77
srh-99 RNAi-treated nematodes
  chemotaxis index: 0.65
srh-100 RNAi-treated nematodes
  chemotaxis index: 0.62
srh-104 RNAi-treated nematodes
  chemotaxis index: 0.65
srh-105 RNAi-treated nematodes
  chemotaxis index: 0.66
srh-109 RNAi-treated nematodes
  chemotaxis index: 0.76
srh-111 RNAi-treated nematodes
  chemotaxis index: 0.37
srh-113 RNAi-treated nematodes
  chemotaxis index: 0.83
srh-115 RNAi-treated nematodes
  chemotaxis index: 0.47
srh-116 RNAi-treated nematodes
  chemotaxis index: 0.56
srh-118 RNAi-treated nematodes
  chemotaxis index: 0.73
srh-119 RNAi-treated nematodes
  chemotaxis index: 0.71
srh-120 RNAi-treated nematodes
  chemotaxis index: 0.72
srh-122 RNAi-treated nematodes
  chemotaxis index: 0.44
srh-123 RNAi-treated nematodes
  chemotaxis index: 0.56
srh-125 RNAi-treated nematodes
  chemotaxis index: 0.70
srh-128 RNAi-treated nematodes
  chemotaxis index: 0.62
srh-129 RNAi-treated nematodes
  chemotaxis index: 0.69
srh-130 RNAi-treated nematodes
  chemotaxis index: 0.70
srh-214 RNAi-treated nematodes
  chemotaxis index: 0.78
srh-216 RNAi-treated nematodes
  chemotaxis index: 0.73
srh-217 RNAi-treated nematodes
  chemotaxis index: 0.60
srh-220 RNAi-treated nematodes
  chemotaxis index: 0.52
srh-222 RNAi-treated nematodes
  chemotaxis index: 0.58
srh-223 RNAi-treated nematodes
  chemotaxis index: 0.76
srh-227 RNAi-treated nematodes
  chemotaxis index: 0.76
srh-229 RNAi-treated nematodes
  chemotaxis index: 0.69
srh-233 RNAi-treated nematodes
  chemotaxis index: 0.38
srh-235 RNAi-treated nematodes
  chemotaxis index: 0.58
srh-236 RNAi-treated nematodes
  chemotaxis index: 0.64
srh-239 RNAi-treated nematodes
  chemotaxis index: 0.84
srh-241 RNAi-treated nematodes
  chemotaxis index: 0.85
srh-243 RNAi-treated nematodes
  chemotaxis index: 0.63
srh-244 RNAi-treated nematodes
  chemotaxis index: 0.76
srh-247 RNAi-treated nematodes
  chemotaxis index: 0.54
srh-250 RNAi-treated nematodes
  chemotaxis index: 0.58
srh-251 RNAi-treated nematodes
  chemotaxis index: 0.64
srh-252 RNAi-treated nematodes
  chemotaxis index: 0.64
srh-258 RNAi-treated nematodes
  chemotaxis index: 0.75
srh-261 RNAi-treated nematodes
  chemotaxis index: 0.72
srh-264 RNAi-treated nematodes
  chemotaxis index: 0.74
srh-266 RNAi-treated nematodes
  chemotaxis index: 0.25
srh-274 RNAi-treated nematodes
  chemotaxis index: 0.60
srh-275 RNAi-treated nematodes
  chemotaxis index: 0.53
srh-276 RNAi-treated nematodes
  chemotaxis index: 0.59
srh-277 RNAi-treated nematodes
  chemotaxis index: 0.65
srh-279 RNAi-treated nematodes
  chemotaxis index: 0.61
srh-281 RNAi-treated nematodes
  chemotaxis index: 0.55
srh-282 RNAi-treated nematodes
  chemotaxis index: 0.79
srh-283 RNAi-treated nematodes
  chemotaxis index: 0.56
srh-284 RNAi-treated nematodes
  chemotaxis index: 0.59
srh-291 RNAi-treated nematodes
  chemotaxis index: 0.91
srh-292 RNAi-treated nematodes
  chemotaxis index: 0.78
srh-293 RNAi-treated nematodes
  chemotaxis index: 0.82
srh-297 RNAi-treated nematodes
  chemotaxis index: 0.56
srh-298 RNAi-treated nematodes
  chemotaxis index: 0.82
srh-308 RNAi-treated nematodes
  chemotaxis index: 0.30
